Test results taken from patent publication US8834929B2, “Drying of drug-containing particles” (Bend Research, Inc., priority 2006, dated 2014).
Values after ≈ are worked out from the molar mass of the structure shown.

How the values were obtained:
[1] = Aqueous solubility of the drug; assay type: physicochemical
[2] = In vitro dissolution test (microcentrifuge, PBS pH 6.5); assay type: physicochemical; conditions: PBS pH 6.5, 290 mOsm/kg, 37° C., 3000 μg/mL Drug 3 if all dissolved; Dispersion 4 before secondary drying; crystalline drug alone
Procedure: A sample of Dispersion 4 was evaluated before and after secondary drying in an in vitro dissolution test to determine the effect of drying on concentration enhancement. For this test, a sufficient amount of Dispersion 4 was added to microcentrifuge test tubes so that the concentration of Drug 3 would have been 3000 μg/mL had all of the drug had dissolved. The test was performed in duplicate. The tubes were placed in a 37° C. temperature-controlled chamber, and 1.8 mL PBS at pH 6.5 and 290 mOsm/kg was added to each tube. The samples were mixed using a vortex mixer for about 60 seconds. The samples were centrifuged at 13,000 G at 37° C. for 1 minute. The resulting supernatant solution was then sampled and diluted 1:6 (by volume) with methanol and then analyzed by high performance liquid chromatography (HPLC). The contents of each tube were mixed on the vortex mixer and allowed to stand undisturbed at 37° C. until the next sample was taken. Samples were collected at 4, 10, 20, 40, 90, and 1200 minutes. For comparison, crystalline Drug 3 alone was tested using the same procedures.
The concentrations of drug obtained in these samples were used to determine the maximum concentration of drug (MDC90) and the area under the concentration-versus-time curve (AUC90) during the initial 90 minutes.

Q: With `O=C(N[C@@H](Cc1ccccc1)[C@H](O)C(=O)N1C[C@@H](O)[C@@H](O)C1)c1cc2cc(Cl)ccc2[nH]1` [Drug 1, 5-chloro-1H-indole-2-carboxylic acid [(1S)-benzyl-(2R)-hydroxy-3-((3R,4S)-dihydroxy-pyrrolidin-1-yl-)-3-oxypropyl]amide] as the compound, how does the solubility [1] read?
A: ~80 µg/mL (≈ 175 µM)

Q: For `CCOC(=O)N1c2ccc(C(F)(F)F)cc2[C@@H](N(Cc2cc(C(F)(F)F)cc(C(F)(F)F)c2)C(=O)OC)C[C@H]1CC` [Drug 2, torcetrapib, reference compound], which solubility [1] is on record?
A: < 0.1 µg/mL

Q: For `C=CCNC(=O)[C@H]1N(C(=O)[C@@H](O)[C@H](Cc2ccccc2)NC(=O)c2cccc(O)c2C)CSC1(C)C` [Drug 3, (4R)—N-allyl-3-{(2S,3S)-2-hydroxy-3-[(3-hydroxy-2-methylbenzoyl)amino]-4-phenylbutanoyl}-5,5-dimethyl-1,3-thiazolidine-4-carboxamide], which solubility [1] is on record?
A: ~1600 µg/mL (≈ 3130 µM)

Q: What about the “AUC90 (area under the concentration-versus-time curve during the initial 90 minutes)” value [2] of the same compound?
A: 9200 µg·min/mL

Q: And the “MDC90 (maximum concentration of drug during the initial 90 minutes)” value [2]?
A: 112 µg/mL
